Legend:
[1] = Prodrug stability in mouse plasma; format: in vitro ADME; conditions: for half-life: read-out: T1/2 (mouse plasma)
[2] = Prodrug stability in human plasma; format: in vitro ADME; conditions: for half-life: read-out: T1/2 (human plasma)
ARPE-19 cells [3] = assay: ROS and cytokine/VEGF mRNA production by ARPE-19 monolayer cells in non-diabetic and diabetic milieu; format: cell-based, human; conditions: ARPE19 monolayer, 0.2 mg/mL; for ROS: ROS % to 25 mM D-Glucose; for IL-1β R.Q. mRNA / IL-6 R.Q. mRNA / IL-18 R.Q. mRNA / TNFα R.Q. mRNA / VEGF R.Q. mRNA: relative change vs 25 mM D-Gluc
Description: (§1) Outer Blood Retinal Barrier conditions: human retinal pigment epithelial cells (RPE) cultures ARPE-19, a spontaneously immortalised human RPE cell line were obtained from American Type Culture Collection (Manassas, Va., USA). ARPE-19 cells and they were cultured in euglycaemic conditions (D-glucose (D-Glc), 5.5 mmol/L) and hyperglycaemic conditions (D-glucose, 25 mmol/L) for 18 days at 37° C. under 5% (vol./vol.) CO2 in medium (DMEM/F12) supplemented with 10% (vol./vol.) FBS (Hyclone; Thermo Fisher Scientific, UT, USA) and 1% (vol./vol.) penicillin/streptomycin (Hyclone; Thermo Fisher Scientific). ARPE-19 cells from passage 20 were used and the medium changed every 3-4 days. For permeability studies, ARPE-19 cells were seeded at 400,000 cells/ml (80,000 RPE cells/well) in 0.33 cm^2 HTS-Transwells (Costar; Corning, N.Y., USA). For real-time PCR, western blot analysis and immunofluorescence cells are seeded at 20,000 cells/ml.
(§2) Experimental conditions and treatments: apart from the euglycemic condition, eighteen different conditions were tested in cells cultured under 25 mmol/L D-glucose:
• Proinflammatory cytokines were evaluated in ARPE-19 cells by RT-PCR and mRNA for IL-6, TNF-α, IL-1β, IL-18, VEGF, IL-10, FGF were measured using the double delta CT method 2-ΔΔCT with Cts values for the gene of interest and the endogenous human B-actin to obtain ΔCT; mRNA values were expressed as relative change with respect to the condition 25 mM D-Gluc. (ref: Livak K J, Analysis of Relative Gene Expression Data Using Real-Time Quantitative PCR and the 2-ΔΔCT Method, Methods, 2001, 25(4), 402-408, doi 10.1006/meth.2001.1262) • ROS production was evaluated using Cell Biolabs' OxiSelect™ Intracellular ROS Assay (Green Fluorescence) (Bionova, Madrid, Spain). The assay employs the cell-permeable fluorogenic probe 2′, 7′-Dichlorodihydrofluorescin diacetate (DCFH-DA), oxidized to highly fluorescent 2′, 7′-Dichlorodihydrofluorescein (DCF) by cellular ROS. • Endothelin-1, PDGF and VCAM-1 expression was analyzed in HREC monolayers by immunohistochemical analysis and by RT-PCR. • TJ expression (ZO) is analyzed in ARPE-19 and HREC monolayers by immunohistochemical analysis.

[4] = system: human retinal endothelial cells (HRECs); assay: Inner blood retinal barrier: HREC monolayer permeability to FITC-dextran; format: cell-based
Text: (§3) The mechanisms of actions involved in the anti-permeability effect of the tested treatments were explored by assessing permeability to fluorescent dextran and proinflammatory cytokines production using their mRNA expression levels by RT-PCR.
Inner Blood Retinal Barrier conditions: primary human retinal endothelial cells (HRECs) were obtained from a vial of cryopreserved cells purchased from Innoprot (Vizcay, Spain). These cells were isolated from human retinal tissue of cadaveric eyes digested with 0.1 mg/mL collagenase type I at 37° C. for 1 hour. Then, endothelial cells were finally selected with CD31 antibody-coated magnetic beads (DynaBeads; Dynal, Oslo, Norway). HRECs were thawed in the laboratory and cultured in endothelial basal medium (EBM) containing, 5.5 mM D-glucose, 5% FBS (Fetal Bovine Serum), 100 U/mL penicillin, 100 μg/mL streptomycin, and ECG (Endothelial Cell Growth Supplement) supplement (Innoprot, Vizcay, Spain). Human fibronectin (MerckMillipore, Madrid, Spain) at 5 μg/mL was used for cell attachment. Cells at passages 2-3 will be used for the experiments. For experimentation, HRECs were grown to confluence and then cell culture media was changed to medium supplemented with 1% FBS for 24 h and then exposed to different treatments.
Conditions treatments: The same conditions specified for the experiment in ARPE-19 cells were used.
Measurement of HREC permeability: Permeability in HREC monolayers were obtained on permeable supports at 12×10^5 cells/well (24 wells, PCF filters, Merk Millipore). Inserts were incubated for 48 hours at 37° C. in 5% CO2-air to form the monolayer. At the end, medium was serum depleted 24 h before to proceed with the treatments. The lower chamber was filled with 600 μL of complete EBM medium and the upper chamber with 100 μL of cell suspension in serum depleted (1%).
To detect changes in the permeability, 100 μg/ml of fluorescent FITC-DEXTRAN (Sigma, Madrid, Spain), was added to the upper side of the insert. Aliquots of 200 μL from the basal compartment was read in a SpectraMax Gemini (Molecular Devices, Sunnyvale, Calif.) at a wavelength of excitation/emission 485/528 nm every 30 min. Finally, the concentration of dextran was determined by extrapolation of the fluorescence reads in a standard curve. Each condition was tested in triplicate.

ARPE-19 cells [5] = assay: Outer blood retinal barrier: ARPE-19 monolayer permeability to FITC-dextran; format: cell-based, human
Text: as §3, §1, §2
Condition 2) Cells are treated with diabetic milieu 25 mM D-Glucose+vehicle (days 15, 16 and 17 at one application/day) in order to evaluate their effect in preventing the cell damage provoked by the diabetic milieu.
Condition 9) Cells were treated with 25 mM D-Glucose and bevacizumab (0.2 mg/ml) for 72 h (days 15, 16 and 17 at one application/day) to evaluate their potential cytotoxic effects.
Condition 10)=Diabetic milieu; cells were treated with 25 mM D-Glucose+[…] (10 ng/ml)+TNF-α (25 ng/ml)+VEGF (25 ng/ml), for 48 h (days 16 and 17 at one application/day) in order to provoke the disruption of the monolayer.
Condition 17) Cells are treated with diabetic milieu (25 mM D-Glucose+IL-1β (10 ng/ml)+TNF-α (25 ng/ml)+VEGF (25 ng/ml))+bevacizumab (0.2 mg/mL) (days 15, 16 and 17 at one application/day) in order to evaluate their effect in preventing the cell damage provoked by the diabetic milieu.
Measurement of ARPE-19 permeability: The permeability of RPE cells was determined at 18 days by measuring the apical-to basolateral movements of FITC-dextran (40 kDa) (Sigma, St Louis, […]., USA) following a procedure previously reported by Villarroel et al. Exp Eye Res, 2009, 89, 913-920.

[6] = diabetic milieu (25 mM D-Gluc + VEGF, TNF-α, IL-1β)

O=C(O)c1cc(O)cc(CS(=O)(=O)Cc2cc(O)cc(C(=O)OCCN3CCOCC3)c2O)c1O [IVc-059a-mpe1, 2,5-Dihydroxy-3-[[2,5-hydroxy-3-(2-morpholinoethoxycarbonyl)phenyl]methylsulfonyl-methyl]benzoic acid]
Stability in mouse plasma (in words) [1]: stable up to 60 min

O=C(OCCN1CCOCC1)c1cc(O)cc(CS(=O)(=O)Cc2cc(O)cc(C(=O)OCCN3CCOCC3)c2O)c1O [IVc-059a-mpe2, 2,5-Dihydroxy-3-[[2,5-hydroxy-3-(2-morpholinoethoxycarbonyl)phenyl]methylsulfonyl-methyl]benzoic acid 2-morpholinoethyl ester]
Stability in mouse plasma (in words) [1]: stable up to 60 min
T1/2 (human plasma) [2]: > 180 min

CC(OC(=O)c1cc(O)cc(CS(=O)(=O)Cc2cc(O)cc(C(=O)O)c2O)c1O)OC(=O)C(C)(C)C (stereo not shown) [IVc-059a-pive1, 3-[[3-[1-(2,2-Dimethylpropanoyloxy)ethoxycarbonyl]-2,5-dihydroxy-phenyl]methylsulfonyl-methyl]-2,5-dihydroxy-benzoic acid]
Stability in mouse plasma (in words) [1]: Hydrolyzed Rapidly

CC(OC(=O)c1cc(O)cc(CS(=O)(=O)Cc2cc(O)cc(C(=O)OC(C)OC(=O)C(C)(C)C)c2O)c1O)OC(=O)C(C)(C)C (stereo not shown) [IVc-059a-pive2, 3-[[3-[1-(2,2-Dimethylpropanoyloxy)ethoxycarbonyl]-2,5-dihydroxy-phenyl]methyl-sulfonyl-methyl]-2,5-dihydroxy-benzoic acid 1-(2,2-dimethylpropanoyloxy)ethyl ester]
Stability in mouse plasma (in words) [1]: hydrolyzed rapidly
Stability in human plasma (in words) [2]: hydrolyzed rapidly

CC(C)(C)C(=O)OCOC(=O)c1cc(O)cc(CS(=O)(=O)Cc2cc(O)cc(C(=O)O)c2O)c1O [IVc-059a-pivm1, 2,5-Dihydroxy-3-[[2,5-dihydroxy-3-(2,2-dimethylpropanoyloxymethoxycarbonyl)phenyl]methyl-sulfonylmethyl]benzoic acid]
Stability in mouse plasma (in words) [1]: hydrolyzed rapidly
half-life [1]: 6.7 min
half-life [2]: > 180 min

CC(C)(C)C(=O)OCOC(=O)c1cc(O)cc(CS(=O)(=O)Cc2cc(O)cc(C(=O)OCOC(=O)C(C)(C)C)c2O)c1O [IVc-059a-pivm2, 2,2-Dimethylpropanoyloxymethyl 2,5-dihydroxy-3-[[2,5-dihydroxy-3-(2,2-dimethyl-propanoyloxymethoxycarbonyl)phenyl]methylsulfonylmethyl]benzoate]
Stability in mouse plasma (in words) [1]: hydrolyzed rapidly
half-life [1]: 14.1 min
half-life [2]: > 180 min

CC(OC(=O)c1cc(NC(=O)c2cc(O)c(C(=O)Nc3ccc(O)c(C(=O)O)c3)cc2O)ccc1O)OC(=O)C(C)(C)C (stereo not shown) [Ic-007a-pive1, 5-[[4-[[3-[1-(2,2-dimethylpropanoyloxy)ethoxycarbonyl]-4-hydroxy-phenyl]carbamoyl]-2,5-dihydroxy-benzoyl]amino]-2-hydroxy-benzoic acid]
remaining after 1 h (mouse plasma) ([1]; 1 h, ester cleaved): 49%
half-life [1]: 44.6 min
half-life [2]: > 180 min

bevacizumab: comparator in ARPE-19 and HREC permeability experiments [reference compound]
ROS (ARPE-19 cells [3]; 25 mM D-Gluc): 110 ± 54%
IL-1β R.Q. mRNA (ARPE-19 cells [3]; 25 mM D-Gluc): 1.46 ± 0.72 R.Q.
IL-6 R.Q. mRNA (ARPE-19 cells [3]; 25 mM D-Gluc): 0.64 ± 0.34 R.Q.
IL-18 R.Q. mRNA (ARPE-19 cells [3]; 25 mM D-Gluc): 0.09 ± 0.01 R.Q.
TNFα R.Q. mRNA (ARPE-19 cells [3]; 25 mM D-Gluc): 0.46 ± 0.63 R.Q.
VEGF R.Q. mRNA (ARPE-19 cells [3]; 25 mM D-Gluc): 1.68 ± 0.83 R.Q.
ROS (ARPE-19 cells [3]; [6]): 111 ± 50%
IL-1β R.Q. mRNA (ARPE-19 cells [3]; [6]): 31.22 ± 12.65 R.Q.
IL-6 R.Q. mRNA (ARPE-19 cells [3]; [6]): 32.35 ± 13.48 R.Q.
IL-18 R.Q. mRNA (ARPE-19 cells [3]; [6]): 0.53 ± 0.04 R.Q.
TNFα R.Q. mRNA (ARPE-19 cells [3]; [6]): 1.37 ± 0.27 R.Q.
VEGF R.Q. mRNA (ARPE-19 cells [3]; [6]): 3.88 ± 0.68 R.Q.
% permeability HREC ([4]; No 9: 25 mM D-Gluc + 0.2 mg/mL): 127.1 ± 26.2%
% permeability HREC ([4]; No 17: 25 mM D-Gluc + 0.2 mg/mL + VEGF, TNF-α, IL-β (diabetic milieu)): 129.0 ± 35.3%
% permeability ARPE19 (ARPE-19 cells [5]; No 9: 25 mM D-Gluc + 0.2 mg/mL): 109.5 ± 22.9%
% permeability ARPE19 (ARPE-19 cells [5]; No 17: 25 mM D-Gluc + 0.2 mg/mL + VEGF, TNF-α, (diabetic milieu)): 120.7 ± 30.1%

From US20230150951A1, “2,5- OR 2,6-DISUBSTITUTED HYDROQUINONE DERIVATIVES WITH AT LEAST ONE CARBOXY, SULFO OR AMIDO GROUP USEFUL AS MEDICAMENTS” (OM PHARMA SA, priority 2020, published 2023)
